Test results as given in ChEMBL document CHEMBL1201862, “PubChem BioAssay data set” (2004).
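Method: 48-hour compound exposure of cells in 96-well plates, five concentrations, linear interpolation of endpoints. The concentration for 50% growth inhibition is given as GI50.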 Active and inactive are the calls of the source. Rule as the data show it: active = GI50 up to about 1.1 µM and inactive = higher.

What was measured:
Test in all cases: DTP human tumour cell line panel, 48 h
NCI-H23 = test system: NCI-H23
K562 = test system: K562
CAKI-1 = test system: CAKI-1
CCRF-CEM = test system: CCRF-CEM
OVCAR-5 = test system: OVCAR-5
SF-295 = test system: SF-295
SK-MEL-5 = test system: SK-MEL-5
SN12C = test system: SN12C
LOX IMVI = test system: LOX IMVI
SK-MEL-2 = test system: SK-MEL-2
NCI/ADR-RES = test system: NCI/ADR-RES
786-0 = test system: 786-0
HT-29 = test system: HT-29
COLO 205 = test system: COLO 205
MDA-N = test system: MDA-N
A549 = test system: A549
SNB-75 = test system: SNB-75
HCT-15 = test system: HCT-15
UACC-62 = test system: UACC-62
ACHN = test system: ACHN

Row | SMILES | GI50 (NCI-H23) | GI50 (K562) | GI50 (CAKI-1) | GI50 (CCRF-CEM) | GI50 (OVCAR-5) | GI50 (SF-295) | GI50 (SK-MEL-5) | GI50 (SN12C) | GI50 (LOX IMVI) | GI50 (SK-MEL-2) | GI50 (NCI/ADR-RES) | GI50 (786-0) | GI50 (HT-29) | GI50 (COLO 205) | GI50 (MDA-N) | GI50 (A549) | GI50 (SNB-75) | GI50 (HCT-15) | GI50 (UACC-62) | GI50 (ACHN)
1 | Cc1cc2c(cc1C)[n+]([O-])c(C(F)(F)F)c(C(=O)c1ccccc1)[n+]2[O-] | 2.12 µM (inactive) | 2.27 µM (inactive) | 0.76 µM (active) | 2.02 µM (inactive) | 3.08 µM (inactive) | 2.4 µM (inactive) | 1.73 µM (inactive) | 2.74 µM (inactive) | 2.17 µM (inactive) | 4.89 µM (inactive) | 2.49 µM (inactive) | 3.47 µM (inactive) | 1.71 µM (inactive) | 1.82 µM (inactive) | 3.35 µM (inactive) | 1.42 µM (inactive) | 3.32 µM (inactive) | 3.24 µM | 2.22 µM (inactive) | 2.39 µM (inactive)
2 | CC1(C)CC[C@]2(C(=O)O)CC[C@]3(C)C(=CC[C@@H]4[C@@]5(C)CC[C@H](OC6OC(CO)C(O)C(O)C6OC6OC(CO)C(O)C(O)C6O)C(C)(C)[C@@H]5CC[C@]43C)[C@@H]2C1 (stereo not given in full) | 24.9 µM (inactive) | 19.8 µM (inactive) | 19.5 µM (inactive) | 21.2 µM (inactive) | 2.49 µM (inactive) | 18.8 µM (inactive) | 19 µM (inactive) | 18.2 µM (inactive) | 28.2 µM (inactive) | 0.0509 µM (active) | 21.2 µM (inactive) | 16.6 µM (inactive) | 15.8 µM (inactive) | 15.4 µM (inactive) | 19.6 µM (inactive) | 18.3 µM (inactive) | 21.6 µM (inactive) | 18 µM | 19.3 µM (inactive) | 18.5 µM (inactive)
3 | CC1=Cc2ccc(C)cc2C(=O)C1=O | 17.3 µM (inactive) | 2.07 µM (inactive) | 5.07 µM (inactive) | 0.176 µM (active) | 18.3 µM (inactive) | 18.5 µM (inactive) | 20.4 µM (inactive) | 5.04 µM (inactive) | 4.66 µM (inactive) | 19.9 µM (inactive) | 18.8 µM (inactive) | 1.85 µM (inactive) | 20.1 µM (inactive) | 6.07 µM (inactive) | 4.18 µM (inactive) | 23.7 µM (inactive) | 8.3 µM (inactive) | 19.3 µM | 20.2 µM (inactive) | 1.95 µM (inactive)
4 | Cc1c2cccc(Sc3ccccc3)c2c2c3c(cccc13)[S+](c1ccccc1)C2 (stereo not given) | 1.82 µM (inactive) | 0.408 µM (active) | 3.19 µM (inactive) | 1.77 µM (inactive) | 3.03 µM (inactive) | 1.78 µM (inactive) | 0.748 µM (active) | 2.24 µM (inactive) | 1.72 µM (inactive) | 1.5 µM (inactive) | 28.6 µM (inactive) | 2.98 µM (inactive) | 1.47 µM (inactive) | 0.923 µM (active) | 2.28 µM (inactive) | 2.88 µM (inactive) | 1.94 µM (inactive) | 10.4 µM | 1.66 µM (inactive) | 4.04 µM (inactive)
5 | O=C1C2C3C4C1C1C2[C@H](OCc2ccccc2)C3C1[C@H]4OCc1ccccc1 (stereo not given in full) | 48.8 µM (inactive) | > 100 µM (inactive) | 41.7 µM (inactive) | > 100 µM (inactive) | 24.3 µM (inactive) | > 100 µM (inactive) | 36.3 µM (inactive) | > 100 µM (inactive) | 40.4 µM (inactive) | 51.2 µM (inactive) | 19.7 µM (inactive) | > 100 µM (inactive) | 15.2 µM (inactive) | 28.9 µM (inactive) | > 100 µM (inactive) | 40.9 µM (inactive) | 38.9 µM (inactive) | 22.2 µM | 41.5 µM (inactive) | 47.6 µM (inactive)
6 | CC(C)OC(=O)c1ccc(NCC2=CC(=O)C=CC2=O)cc1Cl | 13.2 µM (inactive) | 2.73 µM (inactive) | 2.19 µM (inactive) | 0.448 µM (active) | 22.2 µM (inactive) | 17.8 µM (inactive) | 18.7 µM (inactive) | 16.1 µM (inactive) | 10.5 µM (inactive) | 31.7 µM (inactive) | 7.93 µM (inactive) | 14.1 µM (inactive) | 16.3 µM (inactive) | 4.07 µM (inactive) | 8.39 µM (inactive) | 31.9 µM (inactive) | 15.8 µM (inactive) | 4.4 µM | 13.2 µM (inactive) | 4.36 µM (inactive)
7 | COc1ccc(CC2C3=C(CCCC3)CCN2C)cc1 (stereo not given) | > 100 µM (inactive) | 39 µM (inactive) | > 100 µM (inactive) | > 100 µM (inactive) | > 100 µM (inactive) | > 100 µM (inactive) | > 100 µM (inactive) | > 100 µM (inactive) | > 100 µM (inactive) | > 100 µM (inactive) | > 100 µM (inactive) | > 100 µM (inactive) | 65.8 µM (inactive) | > 100 µM (inactive) | > 100 µM (inactive) | > 100 µM (inactive) | 55.2 µM (inactive) | > 100 µM | 65.6 µM (inactive) | > 100 µM (inactive)
